The text below walks through data of patent publication US20090099167A1, “Organic compounds” (Novartis Institutes for Biomedical Research, priority 2004, published 2009).

As a reminder, the IC50 is the concentration needed to halve the response being measured.

The target of experiment [1] is T1, human insulin receptor (Ins-R) (Homo sapiens, UniProt P06213).
T1 construct: encoding the amino acid region 919-1343 of the intra-cytoplasmic kinase domain of the human insulin receptor; made in house; host or cells: baculovirus (Bac-to-Bac)
T1 sequence (P06213 958-1382 limits assumed): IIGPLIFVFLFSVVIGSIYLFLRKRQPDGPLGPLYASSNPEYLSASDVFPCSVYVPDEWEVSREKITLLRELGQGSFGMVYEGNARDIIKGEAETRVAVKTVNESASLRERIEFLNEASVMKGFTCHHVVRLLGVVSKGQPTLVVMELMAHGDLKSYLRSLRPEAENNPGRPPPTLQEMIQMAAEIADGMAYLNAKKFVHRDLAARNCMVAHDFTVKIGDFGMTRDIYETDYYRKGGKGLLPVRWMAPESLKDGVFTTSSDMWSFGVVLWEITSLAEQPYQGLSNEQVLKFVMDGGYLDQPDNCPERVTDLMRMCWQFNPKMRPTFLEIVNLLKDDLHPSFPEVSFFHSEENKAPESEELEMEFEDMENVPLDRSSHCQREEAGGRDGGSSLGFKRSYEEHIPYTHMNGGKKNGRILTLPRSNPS
Put plainly: Ins-R tyrosine kinase assay, GST-Ins-R. The format is biochemical. The settings on record: Table 4; read-out: Ins-R, activity (IC50 for kinase inhibition). An excerpt: The inhibition of IGF-1R and Ins-R can be determined as follows: The baculovirus donor vector pfbgx3IGFIRcd is used to generate a recombinant baculovirus that expresses the amino acid region 950-1337 of the mature peptide cytoplasmic domain of the human IGF-IR. To generate the cDNA fragment encoding the amino acid region 919-1343 of the intra-cytoplasmic kinase domain of the human insulin receptor, pC5hInsR is used. The fragments of the human IGF-IR and Ins-R are cloned, expressed and small-scale purified as a factor Xa-cleavable glutathione-S-transferase (GST)-fusion protein using the Bac-to-Bac™ system (GIBCO BRL) of recombinant baculovirus generation. Virus containing media is collected from the transfected cell culture and used for infection to increase its titer. Virus containing media obtained after two rounds of infection is used for large-scale protein expression. Cell extracts are prepared and loaded onto a glutathione-Sepharose (Pharmacia) column. After washing, the GST-tagged proteins are then eluted with a glutathione-containing buffer. Purified protein is stored at −70° C. in elution buffer. Tyrosine protein kinase assays with purified GST-IGF-1R and GST-ins-R are carried in a final volume of 30 μl containing 20 mM Tris-HCl, pH 7.6, 10 mM MgCl2, 0.01 mM Na3VO4, 1% DMSO, 1 mM DTT, 3 μg/ml poly(Glu,Tyr) 4:1 and 10 μM ATP (γ-[^33P]-ATP 0.1 μCi). The assay is performed in 96-well plates at ambient temperature for 20 min and terminated by addition of 25 μl 0.05 M EDTA pH 7.0. An aliquot of 40 μl is spotted with a multichannel dispenser on Whatman P81 membranes mounted in a Millipore Microtiter filter manifold connected to a low vacuum source. After elimination of liquid, the membrane is transferred to a sequence of 4 washing baths containing 0.5% H3PO4 and one with EtOH (shaking incubation for 10 min each), dried, mounted onto a Hewlett Packard TopCount manifold added 10 μl Microscint® and counted. Compounds of formula (I) show up to 90% inhibition of Ins-R at 10,000 nM, preferably between 60-90% inhibition. The inhibition of Tek can be determined as follows: The procedure of the expression, purification and assay these kinases has been described. Fabbro et al., Pharmacol. Ther. 82(2-3) 293-301 (1999). In brief, the glutathione S-transferase (GST) gene from the pAcG1 vector (Pharmingen) is excised with EcoRV and EcoRI and inserted into the cloning site of the Fast-Bac baculoviral vector (GIBCO) creating a 5530 bp vector with N-terminal cloning sites derived from the pAcG1 fusion vector (FBG0). The C-terminal cloning site may be any cloning site (from the Fast-Bac vector) downstream of the N-terminal cloning site used. N-terminally GST-fused (pAcG1, Pharmingen) KDR, Flt-1, Flk-1, Tek and PDGFR-β kinase domains are obtained from ProQinase, Freiburg, Germany. Tek is recloned into the FBG1 vector by EcoRI excision and ligation into EcoRI digested FBG1 (FBG1-Tek). The coding sequences for the whole cytoplasmic domain of c-Kit (aa 544-976) and c-Fms (aa 538-972) are amplified by PCR from human uterus and from human bone marrow cDNA libraries (Clontech), respectively. The amplified DNA fragments are fused to GST by cloning them into FBG1 as BamHI-EcoRI insertions, to yield FBG1-c-Kit and FBG1-c-Fms. Tek is recloned into the FBG0 transfer vector by EcoRI excision and ligation into EcoRI digested FBG0 (FBG-Tie2/Tek). FGFR-1 and c-met kinase domains are obtained by PCR from human A431 cells. N-terminal primers contain an overhanging EcoRI site, while C-terminal primers contain a XhoI site to aid cloning into the transfer vectors. After digestion of both the PCR fragments and FBG0 the cleavage products are gel-purified and ligated together to form the kinase constructs (FBG-Met, FBG-FGFR-1).

A further experiment concerns the target Cdk1/cycB (UniProt P06493). Put plainly: Cdk1/cycB kinase assay, histone H1 substrate. It counts as biochemical, starfish. The settings on record: Table 4; read-out: Cdk1, activity (IC50 for kinase inhibition). As to the method: The inhibition of Cdk1 can be determined as follows: Cdk1/cycB: Cdk1/cycB are obtained from ProQinase, Freiburg, Germany. Starfish oocytes are induced to enter M phase of the cell cycle with 10 μM 1-methyladenine and frozen in liquid nitrogen and stored at −80° C. […] Briefly, the supernatant from oocytes is equilibrated for 30 min at 4° C. under constant rotation with the p9^CKShs-sepharose beads. The beads are extensively washed and active cdk1/cycB kinase is eluted with purified p9^CKShs (3 mg/ml). […] The assay is carried with slight modifications in 96-well plates at ambient temperature for 20 min. […] The reaction is terminated by addition of 25 μl 0.05 M EDTA pH 7.0. An aliquot of 40 μl is spotted with a multichannel dispenser on Immobilon P membranes mounted in a Millipore Microtiter filter manifold connected to a low vacuum source. After elimination of liquid, the membrane is transferred to a sequence of 4 washing baths containing 0.5% H3PO4 and one with EtOH (shaking incubation for 10 min each), dried, mounted onto a Hewlett Packard TopCount manifold added 10 μl Microscint® and counted. […] Cells were seeded at 2.5×10^7 cells per 150 mm dish and allowed to attach to a 150 mm dish for 1 hr at RT. Media (SF900II containing 10% FBS) is aspirated and recombinant baculovirus; GST-C-Raf-1, v-Ras and v-Src are added at MOI of 3.0, 2.5 and 2.5 receptively in a total volume of 4-5 mL. Cells are incubated for 1 hr at RT and then 15 mL of medium is added. Infected cells are incubated for 48-72 hr at 27° C. Infected Sf21 cells are scraped and collected into a 50 mL tube and centrifuged for 10 min at 4° C. at 1100 g in a Sorvall centrifuge. The cell pellet is washed once with ice cold PBS and lysed with 0.6 mL lysis buffer per 2.5×10^7 cells. Complete lysis of cells is achieved after 10 min on ice with occasional pipetting. […] GST-c-Raf-1 was allowed to bind to the beads at 4° C. for 1 hr with rocking. Bound GST-c-Raf-1 with beads was transferred to a column. The column is washed once with lysis buffer and twice with ice cold Tris buffered saline. Ice cold elution buffer is added and column flow is stopped to allow the free glutathione to disrupt the interaction of GST-c-Raf-1 with glutathione sepharose beads. Fractions (1 mL) are collected into pre-chilled tubes. Each tube contains 10% glycerol (final concentration) to maintain kinase activity during freeze thaw cycles. Purified fractions of GST-c-Raf-1 kinase protein are stored at −80° C.

A further experiment has as its target T2, human RET (Homo sapiens, UniProt P07949).
T2 construct: fused on or other part: N-terminal GST tag (pFB-GSTX3 vector)
As to the kind of experiment: RET kinase inhibition, GST-wtRET or GST-RET-Men2B, 33P incorporation into poly(Glu,Tyr). The settings on record: Table 4. It counts as biochemical. As to the method:
The inhibition of RET is measured as follows: The baculovirus donor vector pFB-GSTX3 is used to generate a recombinant baculovirus that expresses the amino acid region 658-1072 (Swiss prot No. Q9BTB0) of the intra-cytoplasmic kinase domain of human RET-Men2A which corresponds to the wild-type kinase domain of RET (wtRET) and RET-Men2B, which differs from the wtRET by the activating mutation in the activation loop M918T. The coding sequences for the cytoplasmic domain of wtRET and RET-Men2B are amplified by PCR from the plasmids pBABEpuro RET-Men2A and pBABEpuro RET-Men2B. The amplified DNA fragments and the pFB-GSTX3 vector are made compatible for ligation by digestion with SalI and KpnI. Ligation of these DNA fragments results in the baculovirus donor plasmid pFB-GX3-RET-Men2A and pFB-GX3-RET-Men2B, respectively. Production of virus: Transfer vectors containing the kinase domains are transfected into the DH10Bac cell line (GIBCO) and plated on selective agar plates. Colonies without insertion of the fusion sequence into the viral genome (carried by the bacteria) are blue. Single, white colonies are picked and viral DNA (bacmid) are isolated from the bacteria by standard plasmid purification procedures. Sf9 cells or Sf21 (American Type Culture Collection) cells are then transfected in 25 cm^2 flasks with the viral DNA using Cellfectin reagent. Determination of small scale protein expression in Sf9 cells: Virus-containing media is collected from the transfected cell culture and used for infection to increase its titer. Virus-containing media obtained after two rounds of infection is used for large-scale protein expression. For large-scale protein expression 100 cm^2 round tissue culture plates are seeded with 5×10^7 cells/plate and infected with 1 mL of virus-containing media (approximately 5 MOIs). After 3 days, the cells are scraped off the plate and centrifuged at 500 rpm for 5 minutes. Cell pellets from 10-20, 100 cm^2 plates, are re-suspended in 50 mL of ice-cold lysis buffer (25 mM tris-HCl, pH 7.5, 2 mM EDTA, 1% NP-40, 1 mM DTT, 1 mM P MSF). The cells are stirred on ice for 15 minutes and then centrifuged at 5,000 rpms for 20 minutes. Purification of GST-tagged proteins: The centrifuged cell lysate is loaded onto a 2 mL glutathione-sepharose column (Pharmacia) and is washed 3× with 10 mL of 25 mM tris-HCl, pH 7.5, 2 mM EDTA, 1 mM DTT, 200 mM NaCl. The GST-tagged proteins are then eluted by 10 applications (1 mL each) of 25 mM tris-HCl, pH 7.5, 10 mM reduced-glutathione, 100 mM NaCl, 1 mM DTT, 10% glycerol and stored at −70° C. Measure of enzyme activity: Tyrosine protein kinase assays with either purified GST-wtRET or GST-RET-Men2B protein are carried out in a final volume of 30 μL containing 15 ng of either GST-wtRET or GST-RET-Men2B protein, 20 mM tris-HCl, pH 7.5, 1 mM MnCl2, 10 mM MgCl2, 1 mM DTT, 3 μg/mL poly(Glu,Tyr) 4:1, 1% DMSO, 2.0 μM ATP (γ-[^33P]-ATP 0.1 μCi). The activity is assayed in the presence or absence of inhibitors, by measuring the incorporation of ^33P from [γ^33P] ATP into poly(Glu,Tyr) 4:1. The assay is carried out in 96-well plates at ambient temperature for 15 minutes under conditions described below and terminated by the addition of 20 μL of 125 mM EDTA. Subsequently, 40 μL of the reaction mixture are transferred onto Immobilon-PVDF membrane (Millipore) previously soaked for 5 minutes with methanol, rinsed with water, then soaked for 5 minutes with 0.5% H3PO4 and mounted on vacuum manifold with disconnected vacuum source. After spotting all samples, vacuum is connected and each well-rinsed with 200 μL 0.5% H3PO4. Membranes are removed and washed 4× on a shaker with 1.0% H3PO4, once with ethanol. Membranes are counted after drying at ambient temperature, mounting in Packard TopCount 96-well frame, and addition of 10 μL/well of Microscint™ (Packard). IC50 values are calculated by linear regression analysis of the percentage inhibition of each compound in duplicate, at 4 concentrations (usually 0.01, 0.1, 1 and 10 μM). […]

Another experiment addresses T3, c-Abl kinase (Homo sapiens, UniProt P00519).
T3 construct: The His-tagged kinase domain of c-Abl is cloned and expressed in the baculovirus/Sf9 system; His; made in house; host or cells: Sf9 (baculovirus)
T3 sequence (P00519 242-493 limits assumed): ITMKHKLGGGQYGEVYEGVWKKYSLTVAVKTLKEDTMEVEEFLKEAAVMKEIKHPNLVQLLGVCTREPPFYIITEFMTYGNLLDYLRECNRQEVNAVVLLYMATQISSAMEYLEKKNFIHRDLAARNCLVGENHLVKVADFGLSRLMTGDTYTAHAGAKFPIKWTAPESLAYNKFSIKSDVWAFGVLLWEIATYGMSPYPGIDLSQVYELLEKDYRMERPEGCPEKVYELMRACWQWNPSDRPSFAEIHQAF
Put plainly: c-Abl protein-tyrosine kinase filter binding assay. It counts as biochemical. As to the method: The His-tagged kinase domain of c-Abl is cloned and expressed in the baculovirus/Sf9 system as described by Bhat et al. in J. Biol. Chem. 1997; 272:16170-16175. A protein of 37 kD (c-Abl kinase) is purified by a two-step procedure over a Cobalt metal chelate column followed by an anion exchange column with a yield of 1-2 mg/L of Sf9 cells (Bhat et al., reference cited). The purity of the c-Abl kinase is >90% as judged by SDS-PAGE after Coomassie blue staining. The assay contains (total volume of 30 μL): c-Abl kinase (50 ng), 20 mM Tris.HCl, pH 7.5, 10 mM MgCl2, 10 μM Na3VO4, 1 mM DTT and 0.06 μCi/assay [γ^33 P]-ATP (5 μM ATP) using 30 μg/mL poly-Ala,Glu,Lys,Tyr-6:2:5:1 (Poly-AEKY, Sigma P1152) in the presence of 1% DMSO. Reactions are terminated by adding 10 μL of 250 mM EDTA and 30 μL of the reaction mixture is transferred onto Immobilon-PVDF membrane (Millipore, Bedford, Mass., USA) previously soaked for 5 min with methanol, rinsed with water, then soaked for 5 min with 0.5% H3PO4 and mounted on vacuum manifold with disconnected vacuum source. After spotting all samples, vacuum is connected and each well rinsed with 200 μL 0.5% H3PO4. Membranes are removed and washed on a shaker with 0.5% H3PO4 (4 times) and once with ethanol. Membranes are counted after drying at ambient temperature, mounting in Packard TopCount 96-well frame, and addition of 10 μL/well of Microscint™ (Packard).

T2 sequence (P07949 1-1072 isoform P07949-2): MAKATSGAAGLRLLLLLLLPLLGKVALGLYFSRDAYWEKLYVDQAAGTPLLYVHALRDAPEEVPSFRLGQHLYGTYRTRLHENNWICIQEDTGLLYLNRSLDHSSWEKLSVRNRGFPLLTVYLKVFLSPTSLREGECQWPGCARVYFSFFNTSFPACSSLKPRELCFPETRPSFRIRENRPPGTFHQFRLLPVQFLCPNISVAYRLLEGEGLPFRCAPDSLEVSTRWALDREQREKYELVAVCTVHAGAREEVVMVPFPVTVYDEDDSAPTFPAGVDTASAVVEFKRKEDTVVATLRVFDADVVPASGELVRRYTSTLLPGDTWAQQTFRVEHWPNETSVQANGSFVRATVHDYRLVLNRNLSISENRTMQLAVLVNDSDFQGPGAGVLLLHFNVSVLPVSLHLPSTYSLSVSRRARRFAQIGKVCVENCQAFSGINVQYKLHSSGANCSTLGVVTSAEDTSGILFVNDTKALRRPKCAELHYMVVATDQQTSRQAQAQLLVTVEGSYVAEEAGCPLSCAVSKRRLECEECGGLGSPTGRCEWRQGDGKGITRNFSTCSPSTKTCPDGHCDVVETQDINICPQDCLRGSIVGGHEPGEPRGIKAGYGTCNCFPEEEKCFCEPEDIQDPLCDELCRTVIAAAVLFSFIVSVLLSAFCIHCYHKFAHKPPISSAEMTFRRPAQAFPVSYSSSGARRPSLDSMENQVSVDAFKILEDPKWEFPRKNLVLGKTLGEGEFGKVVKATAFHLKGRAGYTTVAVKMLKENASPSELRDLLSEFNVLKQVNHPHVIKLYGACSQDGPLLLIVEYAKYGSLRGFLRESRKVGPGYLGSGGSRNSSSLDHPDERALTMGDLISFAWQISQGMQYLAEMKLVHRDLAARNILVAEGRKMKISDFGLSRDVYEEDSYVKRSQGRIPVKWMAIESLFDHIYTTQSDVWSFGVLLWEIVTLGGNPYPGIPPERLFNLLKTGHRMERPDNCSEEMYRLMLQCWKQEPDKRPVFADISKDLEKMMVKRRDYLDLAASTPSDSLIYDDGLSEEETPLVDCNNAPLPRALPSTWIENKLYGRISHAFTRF

In the case of `Nc1cc(-c2ccccc2)nc2c(Br)cnn12` [Example 18, 3-Bromo-5-phenyl-pyrazolo[1,5-a]pyrimidin-7-ylamine], the half-maximal inhibitory concentration (IC50) (in experiment [1]; on Cdk1/cycB) was less than 10 µM throughout.

At human RET, `Cc1nn2c(N)c(-c3cccc(O)c3)cnc2c1-c1ccc(N2CCN(C)CC2)cc1` [Example 61a, 3-{7-Amino-2-methyl-3-[4-(4-methyl-piperazin-1-yl)phenyl]-pyrazolo[1,5-a]pyrimidin-6-yl}-phenol] returned an IC50 of less than 10 µM.

In the case of `CN1CCN(c2ccc(-c3cnn4c(N)c(-c5ccc(O)cc5)cnc34)cc2)CC1` [Example 35, 4-{7-Amino-3-[4-(4-methyl-piperazin-1-yl)-phenyl]-pyrazolo[1,5-a]pyrimidin-6-yl}-phenol], the IC50 at c-Abl kinase and on human RET was less than 10 µM in each case.
